Two compounds from paper PMC5154303, “Flavonol and imidazole derivatives block HPV16 E6 activities and reactivate apoptotic pathways in HPV^+ cells” (Cell Death & Disease, 2016) can be followed below.

Structures are written as SMILES. pEC50: −log10 of the molar value.

The term pEC50 denotes the EC50 on a negative log10 scale, so that one unit is a factor of ten.

The test system of one test is C33A cells. As to the kind of experiment: TRAIL-mediated apoptosis in HPV− C33A cells (MTT). The test is classed as cell-based, human. Conditions: 100 μM myricetin pretreatment 4 h, TRAIL + cycloheximide. The procedure:
Figure 5 Myricetin and spinacine (5) can re-sensitize HPV^+, but not HPV^−, cells to treatment with TRAIL. SiHa (2 × 10^4 cells per well) and C33A cells (1 × 10^4 cells per well) were seeded into a 96-well plate and allowed to incubate overnight, and then cells were pretreated in the presence or absence of (a) myricetin (100 μM) or (b) spinacine (50 μM) for 4 h. The indicated concentration of TRAIL along with cycloheximide (5 μg/ml) was added, and the cells were allowed to incubate overnight. Cell viability was measured by MTT assay, and the viability of cells untreated with TRAIL was set at 100%. Experiments were performed in triplicate, and error bars indicate the S.D.
(§1) The extracellular domain of human TRAIL was cloned into a pTriEx expression plasmid containing N-terminal Hisx6 tag. His-TRAIL was expressed in the E. coli BL-21 pLys strain and purified as previously described. Doxorubicin and cisplatin were purchased from Sigma. His-TRAIL, doxorubicin, and cisplatin were diluted in PBS to the desired concentration before using. […] All experiments were repeated at least three times (three biological replicates, carried out on different days), with each experimental group measured in triplicate within each of these individual experiments. […]

Another test deals with T1, GST-E6/His-caspase 8 (Human papillomavirus type 16, UniProt P03126).
T1 construct: made in house
T1 sequence (P03126 whole entry): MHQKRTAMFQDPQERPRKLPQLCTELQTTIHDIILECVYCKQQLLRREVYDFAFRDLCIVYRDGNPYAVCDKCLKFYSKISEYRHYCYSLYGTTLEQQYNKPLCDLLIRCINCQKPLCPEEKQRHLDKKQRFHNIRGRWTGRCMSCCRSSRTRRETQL
As to the kind of experiment: AlphaScreen bead-based binding assay GST-E6/His-caspase 8. Details: species or system HPV 16. The procedure: (§2) Figure 2 3-(1H-indol-1yl)propan-1-amine (1), three benzimidazole derivatives (2–4), and spinacine (5) inhibit protein–protein interactions. Five compounds at the indicated concentrations (1.4 μM–3.2 mM) were tested using our bead-based screening assay for their ability to inhibit three different protein/protein interactions: (a) GST-E6/His-caspase 8; (b) GST-E6/HisE6AP; and (c) GST-caspase 8/His-caspase 8. Binding in the presence of 1.4 μM of the test compound was set at 100%. Experiments were performed in triplicate, and error bars indicate the S.D.
(§3) The construction of the pGEX-E6, pTriEx-E6AP, and pTriEx-Caspase-8 DED plasmids has been reported.[33] Expression and purification of GSTE6, His-E6AP, and His-Caspase-8 DED were carried out as previously described.[33], [37] GST-tagged and His-tagged proteins were diluted into GST dilution buffer (PBS pH 8.0, 5% glycerol, 2 mM DTT) and His dilution buffer (20 mM Hepes pH 7.4, 150 mM NaCl, 2 mMKCl, 5% glycerol, 2 mM DTT), respectively. Protein concentration was measured using Coomassie Plus – The Better Bradford Assay Reagent (Thermo Scientific, Waltham, MA, USA). Purity of the isolated proteins was estimated following separation by sodium dodecyl sulfate-polyacrylamide gel electrophoresis (SDS-PAGE) and Coomassie staining.
(§4) AlphaScreen Technology was used to assess the interactions between GST-E6, GST-caspase 8, His-E6AP, and His-caspase 8. Binding assays were performed in white 384-well plates (Perkin-Elmer) in a total volume of 25 μl as previously described.[33] Briefly, 5 μl (50 ng) of GST-E6 and 5 μl (87.5 ng) of His-caspase 8 were included in each reaction mixture with 5 μl blocking buffer (0.5 mg BSA, 0.5% Tween 20 in PBS) in the absence or presence of 10 μM of each test chemical. Members of the library were present at 10 μM in DMSO. After a 1-h incubation of the mixture at room temperature, 5 μl donor beads and 5 μl acceptor beads (Perkin-Elmer) were added to each well according to the manufacturer's protocol. The mixture was incubated in the dark at room temperature overnight, and the emitted signal was detected using the Envision Multilabel plate reader (Perkin-Elmer). In the presence of test chemicals, the binding affinity was calculated as a percentage of the binding in the presence of carrier only (DMSO).
(In general: Alpha assays give light when donor and acceptor beads are brought close together.)

A further test deals with T2, GST-E6/His-E6AP (Human papillomavirus type 16, UniProt P03126).
T2 construct: made in house
T2 sequence (P03126 whole entry): as above
As to the kind of experiment: AlphaScreen bead-based binding assay GST-E6/His-E6AP. Details: species or system HPV 16. As for the experimental part: as §2, §3, §4

The target in test [1] is GST-caspase 8/His-caspase 8 (Homo sapiens, UniProt Q14790). As to the kind of experiment: AlphaScreen counter-screen GST-caspase 8/His-caspase 8. The test is classed as binding. Conditions: counter-screen, bead-based assay, 1.4 μM–3.2 mM tested. The procedure:
as §2
To ask whether this inhibition was specific, we employed a counter-screening assay in which we assessed the ability of candidates to inhibit the binding of GST-caspase 8 to His-caspase 8; those that did were to be eliminated. In this counter-screening assay, the materials in each well were the same as in the primary screen, with the exception that GST-caspase 8 replaced GST-E6.
as §4

Another test deals with UM-SCC47-TC-Clone 3. As to the kind of experiment: Sensitization to doxorubicin in HPV+ HNSCC line UM-SCC47-TC-Clone 3 (MTT). It counts as cell-based, human. Conditions: HPV+ #47CL3, 12.5 μM compound 4 h, 2 μM doxorubicin. The procedure: (§5) Figure 8 Myricetin and spinacine (5) can re-sensitize HPV^+, but not HPV^−, HNSCC cell lines to treatment with doxorubicin. Two HPV^− (UMMSCC 29 and SCC 84) and three HPV^+ (UMSCC 47, UPCI-SCC90-UP-Clone 35, and UM-SCC47-TC Clone 3) head and neck cancer cell lines (2 × 10^4 cells per well) were seeded into 96-well plates and allowed to incubate overnight, and then cells were pretreated with myricetin or spinacine (0–12.5 μM) for 4 h. In all, 2 μM of doxorubicin was added, and the cells were allowed to incubate overnight. Cell viability was measured by MTT assay, and the viability of cells untreated with small molecules was set at 100%. Experiments were performed in triplicate, and error bars indicate the S.D.
as §1

The next test deals with UMSCC 47. As to the kind of experiment: Sensitization to doxorubicin in HPV+ HNSCC line UMSCC 47 (MTT). The test is classed as cell-based, human. Conditions: HPV+ #47, 12.5 μM compound 4 h, 2 μM doxorubicin. The procedure: as §5, §1

Chain of GST-caspase 8/His-caspase 8 (Q14790 1-184): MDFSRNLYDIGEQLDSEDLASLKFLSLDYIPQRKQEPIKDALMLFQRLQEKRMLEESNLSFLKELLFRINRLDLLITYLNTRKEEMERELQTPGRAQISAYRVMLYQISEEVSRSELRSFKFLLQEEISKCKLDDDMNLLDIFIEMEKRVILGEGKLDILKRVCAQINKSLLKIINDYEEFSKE

In the case of `O=c1c(O)c(-c2cc(O)c(O)c(O)c2)oc2cc(O)cc(O)c12` [Myricetin, myricetin, reference compound], the “sensitivity of C33A cells to TRAIL-mediated apoptosis” value in the test on C33A cells was “remained resistant”.
With `O=C(O)C1Cc2[nH]cnc2CN1` (stereo not drawn) [Spinacine (5), 4,5,6,7-tetrahydro-1H-imidazo[4,5–c]pyridine-6-carboxylic acid], the pEC50 on GST-E6/His-caspase 8 is 4.77; at GST-E6/His-E6AP, 4.70. In test [1], the “EC50 for GST-caspase 8/His-caspase 8 interaction” value is reported as “No Inhibition”. For the same compound, the sensitization to doxorubicin result in the test with UM-SCC47-TC-Clone 3 and in the test with UMSCC 47 was “up to 50%” throughout.
